This note sets out measurements from patent publication US6919298B2, “Enhanced herbicide composition” (Valent Biosciences Corporation, priority 2002, dated 2005).

SMILES strings stand for the structures. Values joined by “and” are separate entries in the source; they are usually repeats but may differ in a detail not shown here. Equal entries are not always repeated.

Experiment [1] deals with tobacco. The experiment in a line: Spray (tank mix) phytotoxicity/herbicidal effect on greenhouse tobacco. The note with it: for Phytotoxicity at 4d post-spraying: Percent Leaf Area Affected / Phytotoxicity at 6d post-spraying: Percent Leaf Area Affected: paraquat 187 mg/l and/or Ethephon 1000 ul/l. The class given is in vivo, Nicotiana tabacum (tobacco). The procedure: (§1) In all experiments, deionized ultra-pure water was used in preparing solutions. Spray solutions were used as soon as possible after mixing.
(§2) COC was added to all spray solutions at a rate of 0.25% (v/v). For all treatments containing both an herbicide and an SAR inducer, these materials were mixed and applied in a single spray solution (commonly known as a tank mix). After spraying, plants were moved to the greenhouse and arranged in a randomized complete block experimental design. Plants were evaluated for phytotoxicity/herbicidal effects after spraying by assessing damage according to percent leaf area affected.
(§3) All the data were subject to an analysis of variance, and the mean separations were determined with Duncan's new multiple range test at α=0.05. The present invention may be illustrated by the following representative examples: […]

In experiment [2] the test system is lambsquarter (Chenopodium album). The experiment in a line: Spray (tank mix) phytotoxicity/herbicidal effect on lambsquarter. The class given is in vivo. The protocol:
as §1, §2, §3

In experiment [3] the test system is tobacco. Also noted: species or system Nicotiana tabacum (tobacco). Conditions: in vivo. The protocol:
as §2
All the data were subject to an analysis of variance, and the mean separations were determined with Duncan's new multiple range test at α=0.05. The present invention may be illustrated by the following representative examples:
In this experiment, the plants were treated and kept in the dark for 48 hours from the first spray treatment to delay the light-dependent effects of paraquat.

The test system of a further experiment is giant foxtail. The experiment in a line: Spray (tank mix) phytotoxicity/herbicidal effect on giant foxtail. The note with it: monocotyledonous plant species (giant foxtail, Table 2). The class given is in vivo. The protocol: as §1, §2, §3
For experiment [4], the system named is tobacco. Also noted: species or system Nicotiana tabacum (tobacco). Conditions: in vivo. The procedure:
as §2, §3
This is another data set of the same source.

The mark [5] stands for this setting: tobacco, added to the paraquat spray solution.
Where [6] appears, read: lambsquarter, Actigard 187 mg/l, with or without paraquat 150 mg/l, COC 0.25%.
The mark [7] stands for this setting: lambsquarter, Actigard 935 mg/l, with or without paraquat 150 mg/l, COC 0.25%.
Setting [8] is: tobacco, Actigard 187 mg/l, with or without paraquat 150 mg/l, COC 0.25%.
Where [9] appears, read: tobacco, Actigard 935 mg/l, with or without paraquat 150 mg/l, COC 0.25%.

Consider `O=C(O)c1cc(F)ccc1O` [5-FSA, 5-fluorosalicylate], for which, in the experiment on tobacco [1] (in vivo), the “Phytotoxicity at 6d” value is reported as 2.3 B, the “Phytotoxicity at 8d” value is recorded as 2.8 B and the “Phytotoxicity at 11d” value amounted to 2.0 B. Further, in the experiment on tobacco [1] (setting [5]), the “Safening from paraquat herbicide damage (in words)” value was “able to safen tobacco from paraquat”.

With `CSC(=O)c1cccc2nnsc12` [Actigard, Benzo(1,2,3)thiadiazole-7-carbothioic acid-S-methyl ester], the “Phytotoxicity at 2d: Percent Leaf Area Affected” value in experiment [2] (setting [6]) is on record as 0 A Percent; in experiment [2] (setting [7]), 0 A Percent; in the experiment on tobacco [1] (setting [8]), 0 A Percent; with tobacco [1] (setting [9]) it was 1 A Percent. The “Phytotoxicity at 4d: Percent Leaf Area Affected” value (in experiment [2] (setting [6]); in experiment [2] (setting [7]); in the experiment with tobacco [1] (setting [8]); in the experiment with tobacco [1] (setting [9])) was 0 A Percent throughout. In addition, the “Phytotoxicity at 7d: Percent Leaf Area Affected” value (in experiment [2] (setting [6]); in experiment [2] (setting [7]); in the experiment on tobacco [1] (setting [8]); in the experiment with tobacco [1] (setting [9])) was 0 A Percent throughout. The “Protection from paraquat damage (in words)” value in experiment [2] (lambsquarter, tank mixed or applied with paraquat) is listed as “did show safening”. In the experiment with tobacco [1] (setting [5]), the “Safening from paraquat herbicide damage (in words)” value is “safened the plants from paraquat herbicide damage”.

For `c1cc[n+]2c(c1)-c1cccc[n+]1CC2` [Diquat, 1,1′-ethylene-2,2′-bipyridyidiylium ion], in the experiment on tobacco [1] (in vivo), the “Phytotoxicity at 1d” value is listed as 3.3. D, the “Phytotoxicity at 4d” value worked out at 4.3 C, the “Phytotoxicity at 6d” value amounted to 4.3 C and the “Phytotoxicity at 12d” value turned out to be 3.9 C.

In the case of `O=P(O)(O)CCCl` [Ethephon, (2-choroethyl) phosphonic acid], the “Safening from paraquat with pre-treatment with 1-MCP (in words)” value in the experiment with tobacco [1] (tobacco, 1-MCP, an inhibitor of ethylene perception) was “observed regardless of pre-treatment with 1-MCP”. Also, the “Safening from paraquat herbicide damage (in words)” value with tobacco [1] (setting [5]) is “safened the plants from paraquat herbicide damage”. Also, in the experiment on tobacco [1] (tobacco, COC 0.25%), the “Phytotoxicity at 4d post-spraying: Percent Leaf Area Affected” value amounted to 0 A Percent and the “Phytotoxicity at 6d post-spraying: Percent Leaf Area Affected” value turned out to be 0 A Percent.

`O=C([O-])c1ccccc1O.[Na+]` [NaSA, sodium salicylate]: the “Protection from paraquat damage (in words)” value in experiment [2] (in vivo) is “limited or no protection from paraquat damage”; in the experiment on tobacco [4], “significant protection from paraquat damage”. In the experiment with tobacco [1] (in vivo), the “Safening from paraquat herbicide damage (in words)” value was “safened the plants from paraquat herbicide damage”. Further, the “Safening against diquat (in words)” value in the experiment on tobacco [1] (tobacco, Table 3) is “able to safen tobacco against the herbicide diquat”. The “Safening from paraquat (in words)” value in the experiment on tobacco [3] is reported as “resulted in safening”. The “Safening from paraquat damage (in words)” value in the experiment with giant foxtail was “safen plants from paraquat damage”.

In the case of `C[n+]1ccc(-c2cc[n+](C)cc2)cc1` [Paraquat, 1,1′-dimethyl-4,4′-bipyridinium ion], in experiment [2] (in vivo), the “Phytotoxicity at 2d” value stood at 3.9 C, the “Phytotoxicity at 2d: Percent Leaf Area Affected” value is listed as 72.5 C Percent, the “Phytotoxicity at 4d” value was determined as 3.9 BC and the “Phytotoxicity at 4d: Percent Leaf Area Affected” value stood at 72.5 BC Percent. Further, in experiment [2] (in vivo), the “Phytotoxicity at 7d” value was determined as 3.9 BC and the “Phytotoxicity at 7d: Percent Leaf Area Affected” value was found to be 72.5 BC Percent. In the experiment with tobacco [1] (in vivo), the “Phytotoxicity at 1d” value stood at 4.1 E; the “Phytotoxicity at 1d: Percent Leaf Area Affected” value was determined as 75 E Percent; the “Phytotoxicity at 2d: Percent Leaf Area Affected” value is 61.25 E Percent and 65 E Percent; the “Phytotoxicity at 4d: Percent Leaf Area Affected” value is listed as 62.5 F Percent. In the experiment on tobacco [1] (in vivo), the “Phytotoxicity at 5d: Percent Leaf Area Affected” value stood at 83.75 E Percent; the “Phytotoxicity at 7d: Percent Leaf Area Affected” value is 50 D Percent and 96.5 D Percent; the “Phytotoxicity at 8d” value came out at 5.0 C; the “Phytotoxicity at 10d: Percent Leaf Area Affected” value is listed as 99 F Percent. In the experiment on tobacco [1] (in vivo), the “Phytotoxicity at 11d” value came out at 5.0 E and the “Phytotoxicity at 12d” value amounted to 4.2 C. For the same compound, in the experiment on tobacco [1] (tobacco, COC 0.25%), the “Phytotoxicity at 4d post-spraying: Percent Leaf Area Affected” value is reported as 95 C Percent and the “Phytotoxicity at 6d post-spraying: Percent Leaf Area Affected” value stood at 97.5 C Percent. Besides, in the experiment with tobacco [3], the “Phytotoxicity after 3 days in the light (5 days after initial spray)” value is recorded as 5.0 D and the “Phytotoxicity after 12 days in the light (14 days after initial spray)” value was 5.0 D. Besides, in the experiment with tobacco [4], the “Phytotoxicity at 1d post-spraying” value is listed as 3.7 D, the “Phytotoxicity at 4d post-spraying” value is 3.8 D and the “Phytotoxicity at 6d post-spraying” value worked out at 3.4 E.
